We go through eleven compounds from patent publication EP0235259B1, “NOVEL TRANSDERMAL ANTI-ANGINAL PHARMACEUTICAL DOSAGE UNIT AND PROCESS FOR ITS ADMINISTRATION” (RUTGERS, THE STATE UNIVERSITY OF NEW JERSEY, priority 1985, dated 1987).

Like-named read-outs stand apart in the source and are kept apart here.

This data set deals with skin from a "hairless" mouse or human cadaver. Briefly: transdermal absorption (skin permeation) of nitroglycerin from polymer matrix dosage units, procedure of Keshary and Chien. Particulars: for Enhancement Factor: Table XIV, 15% W/W nitroglycerin in DC-382 matrix. An excerpt: Enhancing Factor is defined as the ratio of normalized permeation rate [in mcg/cm²/hr] of a dosage unit of this invention with skin permeation enhancer/the normalized permeation rate of a corresponding dosage unit without enhancer in the adhesive layer.
Pharm., 10 (6) 883-913(1984).

Regarding `CCCCCCCCCC[S+](C)[O-]` (centres unmarked) [Enhancer G, Decylmethyl sulfoxide], the “Enhancing Factor” value was 1.61 (0.8 mg/cm²); 1.87 (1.59 mg/cm²); 2.02 (2.4 mg/cm²); 1.36 (5 mg/cm²); 1.22 (10 mg/cm²).

`CCCCCCCCCCCCCC(=O)N(C)C` [Enhancer H, Myristic acid, N,N-dimethylamide]: the “Enhancing Factor” value (0.8 mg/cm²) is given as 1.3, the “Enhancing Factor” value (1.59 mg/cm²) came to 2.0, the “Enhancing Factor” value (3.18 mg/cm²) was 1.6 and the “Enhancing Factor” value (4.78 mg/cm²) is reported as 1.5.

As for `CCCCCCCCCC(=O)O` [Enhancer B, Decanoic acid], the “Enhancing Factor” value reads like this: (0.8 mg/cm²) 2.59; (1.59 mg/cm²) 4.11; (3.18 mg/cm²) 4.41.

`CCCCCCCC/C=C\CCCCCCCC(=O)OCCC` [Enhancer D, Propyl oleate]: the “Enhancing Factor” value is recorded as 1.22 (0.8 mg/cm²), 2.43 (1.59 mg/cm²), 3.08 (3.18 mg/cm²) and 3.78 (4.78 mg/cm²).

On to `CCCCCCCCCCCCCC(=O)OCCC` [Enhancer C, Propyl myristate], for which the “Enhancing Factor” value by setting is: (0.8 mg/cm²) 1.67; (1.59 mg/cm²) 1.92; (3.18 mg/cm²) 3.07; (4.78 mg/cm²) 3.41.

`CCCCCCCCCCCCCC(=O)OCC(CO)OC(=O)CCCCCCCCCCCCC` (racemic) [1,2-Dimyristoyl-RAC-Glycerol]: the “Skin Permeation Rate Without” value is recorded as 39.4 ± 4.32 mcg/cm²/hr. Moreover, under “1.6 mg/cm²”, the “Enhancing Factor” value turned out to be 1.03 and the “Skin Permeation Rate With” value is 40.64 ± 4.27 mcg/cm²/hr.

For the compound `CCCCCCCCCCCCCCCC(=O)OCC(O)CO` (racemic) [1-Monopalmitoyl-RAC-Glycerol], the “Skin Permeation Rate Without” value is on record as 34.1 ± 1.62 mcg/cm²/hr. Where the note is “1.6 mg/cm²”, the “Enhancing Factor” value is given as 0.86 and the “Skin Permeation Rate With” value is 29.39 ± 1.76 mcg/cm²/hr.

Consider `O=[N+]([O-])OCC(CO[N+](=O)[O-])O[N+](=O)[O-]` [NITROGLYCERIN, nitroglycerin, reference compound], for which the “Enhancement Factor” value was 3.36 (enhancers (mg/cm²): (+) menthol 0.8 + capric acid 0.8 + Methyl Salicylate 0.8), 5.29 (enhancers (mg/cm²): (+) menthol 0.8 + capric acid 0.8 + Oleyl alcohol 0.8), 4.61 (enhancers (mg/cm²): (+) menthol 0.8 + capric acid 0.8 + Oleyl alcohol 1.6) and 3.47 (enhancers (mg/cm²): (+) menthol 0.8 + capric acid 0.8 + Salicylic acid 0.8).

As for `CCCCCCCCCCCCCC(=O)OCC(O)CO` (racemic) [1-Monomyristoly-RAC-Glycerol], the “Skin Permeation Rate With” value was determined as 29.88 ± 3.84 mcg/cm²/hr and the “Skin Permeation Rate Without” value was determined as 34.1 ± 1.62 mcg/cm²/hr.

Take `CCCCCCCCCCCCCC(=O)OCC(O)COC(=O)CCCCCCCCCCCCC` (racemic) [1,3-Dimyristoyl-RAC-Glycerol]: the “Skin Permeation Rate Without” value is 34.1 ± 1.62 mcg/cm²/hr. Under “1.6 mg/cm²”, the “Enhancing Factor” value is on record as 0.94 and the “Skin Permeation Rate With” value stood at 32.13 ± 6.94 mcg/cm²/hr.

In the case of `CCCCCCCC/C=C\CCCCCCCCO` [Enhancer E, Oleyl alcohol], the “Enhancing Factor” value by setting is: (0.8 mg/cm²) 1.69; (1.59 mg/cm²) 2.82; (3.18 mg/cm²) 2.65.
